# Assay: in vitro
# Conditions: human, hela cells, % viability
SMILES,"viability at 28.5 h, 10 µM [%]","viability at 28.5 h, 10 µM (bulk resorufin, single well) [%]"
CCN(CC(=O)NC(C)(C)C)S(=O)(=O)c1cccc(C#N)c1 [CBK306087],114,
Cc1ccnc2nc(C(=O)OC(C)C(=O)N3CCCC3)nn12 (centres unmarked) [CBK306089],88.9,
CC(C)OC(=O)CCNC(=O)c1cccc(S(=O)(=O)N2CCCC2)c1 [CBK306090],91.1,
O=C(CN1CCN(CC(=O)NC2CC2)CC1)Nc1cc(Cl)ccc1Cl [CBK306091],84.8,
Cc1nnc(SCC(=O)Nc2ccc(CN3CCOCC3)cc2)n1C [CBK306092],102,
CS(=O)(=O)N1CCCc2cc(-c3csc(N4CCCC4)n3)ccc21 [CBK306093],114,
Cc1nn(C)c2ncc(S(=O)(=O)Nc3cc(C(N)=O)ccc3Cl)cc12 [CBK306104],70,
CCN1CCC(NCc2ccc(OCC(N)=O)cc2)CC1 [CBK306106],85.9,
CCc1nc2n(n1)CC(NCc1nc(C)ccc1O)CC2 (centres unmarked) [CBK306107],106,
CC(C(=O)Nc1ccc(S(N)(=O)=O)cc1)N1CCCc2ccccc21 (centres unmarked) [CBK306108],116,
C#CCNC(=O)N(C)C1CCN(c2ncnc3ccccc23)CC1 [CBK306109],97.6,
CCNC(=O)CN1CCN(c2ccc(C#N)cc2C(F)(F)F)CC1 [CBK306112],85,
O=c1c2cccnc2nc(SCCO)n1CC1CCCO1 (centres unmarked) [CBK306113],80.3,
CC(=O)NCCC(=O)Nc1cc(C)ccc1C [CBK306115],96.6,
N#Cc1ccsc1NC(=O)CN1CCC(CNc2ccccn2)C1 (centres unmarked) [CBK306117],105,
Cc1ccc(-c2nn(CCC#N)cc2C(=O)N2CCCCC2)cc1 [CBK306119],89.6,
CC(C)NC(=O)Nc1ccc(C(=O)N(CC#N)C2CC2)cc1 [CBK306120],90.5,
Cc1cccn2c(=O)cc(CN3CCC(CNc4ccccn4)C3)nc12 (centres unmarked) [CBK306123],103,
COc1ccnc(N2CCN(C(=O)c3cnn(C)c3)CC2)n1 [CBK306125],90.7,
Cc1cc(NC(=O)CN2CCC(CNc3ncccc3C#N)C2)on1 (centres unmarked) [CBK306127],87.8,
Cc1ccnc(NCC2CCN(CC(=O)NC3(C#N)CCCC3)C2)c1 (centres unmarked) [CBK306128],85.8,
Cc1ccc(Cc2cnc(NC(=O)C3CCOCC3)s2)cc1F [CBK306130],77.5,
Cc1cc(NC(=O)CN(C)C(=O)c2cnc(Cl)c(Cl)c2)no1 [CBK306132],101,

SMILES,"viability at 28.5 h, 10 µM [%]","viability at 28.5 h, 10 µM (bulk resorufin, single well) [%]"
O=S1(=O)CCC(c2nc(-c3ccc(Br)o3)no2)C1 (centres unmarked) [CBK306134],77.8,
CC(=O)Nc1ccc(NCc2ncc(C(C)(C)C)o2)c(Cl)c1 [CBK306135],98.6,
Cc1cc(NC(=O)CN2CCC(CSc3ccccc3)C2)no1 (centres unmarked) [CBK306136],92.4,
CCc1cnc(CN(C)C2CCN(CC(=O)NCc3ccco3)C2)o1 (centres unmarked) [CBK306137],94.8,
C#CCNS(=O)(=O)c1cccc(C(=O)N2CCOC(CC(=O)OC)C2)c1 (centres unmarked) [CBK306138],90.8,
CCNC(=O)CN1CCN(C(=O)C(C)(C)c2cccc(C#N)c2)CC1 [CBK306141],96.4,
Cc1ccc(OCC(=O)NCC(c2cccs2)N2CCOCC2)cc1C (centres unmarked) [CBK306143],93.3,
CC(C)C(=O)Nc1sc2c(c1C(=O)NCc1cccnc1)CCC2 [CBK306144],80.3,
CCn1cc(CN2CCCN(C(=O)c3cc(C)on3)CC2)cn1 [CBK306145],88.1,
CC1CCCCN1C(=O)Cn1cnc2c(Cl)cc(Cl)cc2c1=O (centres unmarked) [CBK306149],90.3,
CC(C)N(Cc1cccnc1)C(=O)Cn1c(C2CC2)nc2ccccc21 [CBK306156],104,
CCNS(=O)(=O)c1ccc2c(c1)N(Cc1csnn1)CC2 [CBK306161],74.3,
Cc1nn(CCS(C)(=O)=O)c(C)c1CN1CCOC(c2ccccc2)C1 (centres unmarked) [CBK306162],80.4,
O=C(NCC1(CCO)CC1)c1c[nH]nc1-c1cc2ccccc2o1 [CBK306163],94.5,
O=C(Cn1cnc(-c2nccs2)n1)N1CCCCCC1 [CBK306165],97.5,
CCCCOc1ccc(C(=O)N(C)c2cnn(C)c2)c(O)c1 [CBK306167],89.5,
CCCc1ccc(S(=O)(=O)N2CCOC(c3cnn(CC)c3)C2)cc1 (centres unmarked) [CBK306169],83.4,
CN1CCCc2ccc(S(=O)(=O)NCCc3cn4ccccc4n3)cc21 [CBK306170],82.8,
CCn1cc(C2CN(S(=O)(=O)c3c(C)c(C)cc(C)c3C)CCO2)cn1 (centres unmarked) [CBK306171],63.8,
CNS(=O)(=O)c1cccc2c1CCN(C(=O)NC1CCOC1)C2 (centres unmarked) [CBK306172],106,
O=C(NC1CCCN(CC(F)(F)F)C1=O)c1cnc(-c2ccncc2)s1 (centres unmarked) [CBK306175],82.6,
CCOc1cc(NC2CCN(C(=O)C(C)CC3CCCC3)CC2)ncn1 (centres unmarked) [CBK306176],85.3,
CS(=O)(=O)c1ccc(-n2nnnc2CN2CCC3(CCCC3)C2)cc1 [CBK306178],89.4,

SMILES,"viability at 28.5 h, 10 µM [%]","viability at 28.5 h, 10 µM (bulk resorufin, single well) [%]"
CCC1(C)CCCN(Cc2nnnn2-c2ccc(S(C)(=O)=O)cc2)C1 (centres unmarked) [CBK306180],113,
CC1(C)CCCN(Cc2nnnn2-c2ccc(S(C)(=O)=O)cc2)C1 [CBK306181],91.7,
CS(=O)(=O)c1ccc(-n2nnnc2CN2CCC3(CCCCC3)C2)cc1 [CBK306183],91.1,
CCN(CC)S(=O)(=O)c1ccc(CNC(=O)Cc2ccc(Cl)cc2)cc1 [CBK306188],105,
N#CCCn1cc(C(=O)N2CCOCC2)c(-c2ccc(F)cc2)n1 [CBK306189],95.5,
O=C(O)c1cc(S(=O)(=O)NCc2ccco2)ccc1Br [CBK306193],83.7,
N#CCCn1cc(C(=O)N2CCCCC2)c(-c2cccs2)n1 [CBK306194],86.5,
N#CCCn1cc(C(=O)N2CCOCC2)c(-c2cccs2)n1 [CBK306195],110,
Cc1cc(C(=O)CSc2nnc(CN3CCCC3)o2)c(C)n1C1CC1 [CBK306199],84,
CCOCCn1c(N2CC(C)CC(C)C2)nc2c1c(=O)[nH]c(=O)n2C (centres unmarked) [CBK306200],83.6,
N#CCCn1cc(C(=O)N2CCCCC2)c(-c2cccc(Br)c2)n1 [CBK306202],89.4,
N#CCCn1cc(C(N)=O)c(-c2cc3ccccc3o2)n1 [CBK306204],92.9,
CC1CCCCC12NC(=O)N(Cc1nnc(-c3cccs3)o1)C2=O (centres unmarked) [CBK306205],82.9,
N#CCCn1cc(C(=O)N2CCCCC2)c(-c2cc3ccccc3o2)n1 [CBK306206],95.1,
N#CCCn1cc(C(=O)N2CCOCC2)c(-c2cccc(Cl)c2)n1 [CBK306208],88.2,
CCOc1ncccc1C(=O)Nc1cnc2c(cnn2C(C)C)c1 [CBK306210],102,
CCCCN1C(=O)C(O)(c2c(C)nn(CCC#N)c2N)c2ccccc21 (centres unmarked) [CBK306211],,110
Cc1cc(CNC(=O)CCc2c(C)nc3nc(N)nn3c2C)ccc1F [CBK306212],91.9,
CCN1CCOC(CNc2nc(-c3ccncc3)nc3c2CCC3)C1 (centres unmarked) [CBK306215],88.4,
CCOc1ccc(CN(C)C(=O)Nc2cc(C)on2)cc1 [CBK306216],101,
CC(=O)Nc1ccc(CCNC(=O)NCc2nc(C3CC3)no2)cc1 [CBK306221],96.1,
CC1CCCC(C)N1C(=O)Cn1cnc2c(Cl)cc(Cl)cc2c1=O (centres unmarked) [CBK306222],85.7,
CC(C)(C)OC(=O)N1CCN(Cc2nnc(Cc3ccccc3)o2)CC1 [CBK306223],94.1,

SMILES,"viability at 28.5 h, 10 µM [%]","viability at 28.5 h, 10 µM (bulk resorufin, single well) [%]"
CC(C)NC(=O)N(C)C1CCN(c2ncnc3ccccc23)CC1 [CBK306224],92.4,
COCCN(CCOC)c1ncc(C#N)cc1Cl [CBK306227],92.6,
CCC(C)c1nnc(C2(c3ccc(Br)cc3)CCOCC2)o1 (centres unmarked) [CBK306229],99.7,
CC(C)c1nnc(C2(c3ccc(Br)cc3)CCOCC2)o1 [CBK306230],86.4,
Cc1cc(NC(=O)C(C)SCc2cccc(C(F)(F)F)c2)no1 (centres unmarked) [CBK306233],95.5,
C#CCN(C1CCc2ccccc21)S(=O)(=O)c1cc(C(=O)NC)n(C)c1 (centres unmarked) [CBK306235],91.8,
Cn1cc(Nc2nc(-c3ccc4c(c3)CCCN4S(C)(=O)=O)cs2)cn1 [CBK306236],85.7,
CCCn1cc(NC(=O)C2(c3ccccc3)CCC2)ccc1=O [CBK306237],95.4,
Cc1cc(C)n(C2CN(CC(=O)NCc3ccccn3)C2)n1 [CBK306238],88.3,
CCC1CCCCN1C(=O)Cc1c(C)nc(-c2cccnc2)[nH]c1=O (centres unmarked) [CBK306240],91.6,
O=C(Cn1ccc(=O)[nH]c1=O)NCC1(Sc2ccccc2)CC1 [CBK306242],110,
COCC1CCN(c2c(F)cc(C#N)cc2F)CC1 [CBK306244],104,
Cc1ccccc1-c1cc(C(=O)N(C)C)c2cnn(C(C)C)c2n1 [CBK306245],98.6,
Cc1nnnn1-c1cc(NC(=O)NCCN2CCOCC2)ccc1F [CBK306246],89.2,
CC(=O)Nc1cccc(C(C)NC(=O)N(C)C2CCc3ccccc32)c1 (centres unmarked) [CBK306251],102,
Cc1cccn2cc(CC(=O)NC3(C#N)CCCCC3)nc12 [CBK306252],95.2,
CCc1nc(CN2CCCC(NCc3cccc(C(N)=O)c3)C2)no1 (centres unmarked) [CBK306254],87.2,
CC(C)Cc1nc(Cn2cnc3c(cnn3C)c2=O)no1 [CBK306256],90.7,
CNS(=O)(=O)c1cccc(C(C)NC(=O)N2CCC2)c1 (centres unmarked) [CBK306257],87.1,
Cc1cc(S(=O)(=O)Nc2ccccc2-c2nnnn2C(C)C)c(C)o1 [CBK306259],111,
CCCCNc1cc(N2CCN(c3cnn(C)c3)C(=O)C2)nc(N)n1 [CBK306260],87.8,
CCc1cnc(CNC(=O)NCc2nc3cc(C)ccc3n2C)s1 [CBK306261],98.9,
CS(=O)(=O)c1ccc(-n2nnnc2CN2CCC3(CCC3)C2)cc1 [CBK306262],79.6,

# — publication PMC12040169 (PLOS Biology, 2025)
